According to US7087628B2, “N-heterocyclyl hydrazides as neurotrophic agents” (Ortho-McNeil Pharmaceutical, Inc., priority 2001, dated 2006):

Test system: Primary Rat Hippocampal Cells
Experiment: Neurite outgrowth assay in primary rat hippocampal cells (MAP-2 immunofluorescence)
Type: cell-based
Conditions: neurite outgrowth response reported as percent of DMSO-treated control; MAP-2 fluorescence; cells 7 days in culture
Description: Hippocampal cells were dissected from the brains of embryonic day 18 rat pups and dissociated with trypsin (1 mg/mL) and trituration. Cells were seeded at 30,000 cells/well in 96-well plates filled with 100 μL MEM and 10% FBS. At 7 days in culture, cells were fixed with 4% paraformaldehyde and immuno-fluorescence was performed.
Cultures were incubated with normal horse serum (1:50; Vector Labs) for about 20 min, rinsed and then incubated with primary antibody, microtubule associated-protein 2 (anti-mouse MAP-2; 1:1000; Chemicon) for about 2 h at about RT. Following primary antibody, cultures were rinsed and incubated with fluorescein anti-mouse IgG (rat absorbed; 1:50; Vector Labs) for about 1 h. After fluorescein incubation, the cultures were rinsed and read in PBS on a fluorescent plate reader (excitation: 485 nm; emission: 530 nm). A compound was regarded as active if the neurite outgrowth response was greater than the mean DMSO-treated control response on the same plate. The response to test compound was reported as percent of DMSO-treated control. The signal-to-noise separation was consistent: the fluorescence from DMSO control wells is at least two-fold greater than blank wells.

SMILES	Rat Hippocampal Cell Response
CCC(C)(C)C(=O)C(=O)N1CCCC1C(=O)NNc1ccc2ccccc2n1 (stereo not shown) [(2)]	107
CCC(C)(C)C(=O)C(=O)N1CCCC1C(=O)NNc1ccncc1Br (stereo not shown) [(3)]	106
CCC(C)(C)C(=O)C(=O)N1CCCC1C(=O)NNc1cc(C)c2c(C)nn(C)c2n1 (stereo not shown) [(4)]	105
CCC(C)(C)C(=O)C(=O)N1CCCC1C(=O)NNc1c([N+](=O)[O-])c(C)nn1C (stereo not shown) [(5)]	<100
CCC(C)(C)C(=O)C(=O)N1CCCC1C(=O)NNc1cc(C(F)(F)F)cc(C)n1 (stereo not shown) [(6)]	<100
CCC(C)(C)C(=O)C(=O)N1CCCC1C(=O)NN(C)c1cc(C(F)(F)F)cc(C)n1 (stereo not shown) [(7)]	<100
CCC(C)(C)C(=O)C(=O)N1CCCC1C(=O)NNc1ncc(C(F)(F)F)cc1Cl (stereo not shown) [(8)]	106
CCC(C)(C)C(=O)C(=O)N1CCCC1C(=O)NNc1ccccn1 (stereo not shown) [Compound (1), 1-(3,3-Dimethyl-2-oxo-pentanoyl)-pyrrolidine-2-carboxylic acid N′-pyridine-2-yl-hydrazide]	157
Cc1cc(C(F)(F)F)cc(NNC(=O)C2CCCCN2C(=O)C(=O)c2cccs2)n1 (stereo not shown) [Compound (9), 1-(2-Oxo-2-thiophen-2-yl-acetyl)piperidine-2-carboxylic acid N′-(6-methyl-4-trifluoromethyl-pyridin-2-yl)-hydrazide]	118
O=C(NNc1ccccn1)[C@@H]1CCN1S(=O)(=O)Cc1ccccc1 [Compound (10), 2-Azetidinecarboxylic acid, 1-[(phenylmethyl)sulfonyl]-, 2-(2-pyridinyl)hydrazide, (2S)-]	115
